In brackets after ≈: the same amount, converted by molar mass. Activity calls are given as the source filed them. No cut-off for these calls is given here.
Columns and labels:
Clostridioides difficile [1] = experiment: Antimicrobial activity against nonepidemic Clostridium difficile J29 by broth dilution method; format: functional
Clostridioides difficile [2] = experiment: Effect on growth of epidemic Clostridium difficile BI6-8-17 in CF1 mouse assessed as increase in bacterial density in cecal content at 2 mg/day, sc for 4 days assessed after 2 days of last treatment; format: functional, organism-based
Clostridioides difficile [3] = experiment: Antimicrobial activity against epidemic Clostridium difficile BI6-8-17 by broth dilution method; format: functional
Clostridioides difficile [4] = experiment: Increase in toxin level in nonepidemic Clostridium difficile ATCC 9689 infected in CF1 mouse at 2 mg/day, sc for 4 days assessed after 2 days of last treatment; format: functional, organism-based
Clostridioides difficile [5] = experiment: Effect on growth of nonepidemic Clostridium difficile J29 in CF1 mouse assessed as increase in bacterial density in cecal content at 2 mg/day, sc for 4 days assessed after 2 days of last treatment; format: functional, organism-based
Clostridioides difficile [6] = experiment: Antimicrobial activity against nonepidemic Clostridium difficile ATCC 9689 by broth dilution method; format: functional
Clostridioides difficile [7] = experiment: Increase in toxin level in epidemic Clostridium difficile BI6-8-17 infected CF1 mouse at 1.4 mg/day, sc for 4 days assessed after 2 days of last treatment; format: functional, organism-based
Clostridioides difficile [8] = experiment: Effect on growth of fluoroquinolone-susceptible nonepidemic Clostridium difficile strain6 in CF1 mouse assessed as increase in bacterial density in cecal content at dosed sc for 5 days; format: functional, organism-based
Clostridioides difficile [9] = experiment: Increase in toxin level in nonepidemic Clostridium difficile J29 infected CF1 mouse at 2 mg/day, sc for 4 days assessed after 2 days of last treatment; format: functional, organism-based
Clostridioides difficile [10] = experiment: Increase in toxin level in nonepidemic Clostridium difficile J29 infected CF1 mouse at 1.4 mg/day, sc for 4 days assessed after 2 days of last treatment; format: functional, organism-based
Clostridioides difficile [11] = experiment: Effect on growth of epidemic Clostridium difficile BI9 in CF1 mouse assessed as increase in bacterial density in cecal content at 2 mg/day, sc for 4 days assessed after 2 days of last treatment; format: functional, organism-based
Clostridioides difficile [12] = experiment: Effect on growth of nonepidemic Clostridium difficile ATCC 9689 in CF1 mouse assessed as increase in bacterial density in cecal content at 2 mg/day, sc for 4 days assessed after 2 days of last treatment; format: functional, organism-based
Clostridioides difficile [13] = experiment: Increase in toxin level in nonepidemic Clostridium difficile J29 infected CF1 mouse at 0.2 mg/day, sc for 4 days assessed after 2 days of last treatment; format: functional, organism-based
Clostridioides difficile [14] = experiment: Effect on growth of nonepidemic Clostridium difficile J29 in CF1 mouse assessed as increase in bacterial density in cecal content at 1.4 mg/day, sc for 4 days assessed after 2 days of last treatment; format: functional, organism-based
Clostridioides difficile [15] = experiment: Increase in toxin level in epidemic Clostridium difficile BI9 infected CF1 mouse at 2 mg/day, sc for 4 days assessed after 2 days of last treatment; format: functional, organism-based
Clostridioides difficile [16] = experiment: Antimicrobial activity against fluoroquinolone-resistant epidemic Clostridium difficile NAP1 by broth dilution method; format: functional
Clostridioides difficile [17] = experiment: Antimicrobial activity against fluoroquinolone-susceptible nonepidemic Clostridium difficile strain6 by broth dilution method; format: functional
Clostridioides difficile [18] = experiment: Increase in toxin level in epidemic Clostridium difficile BI6-8-17 infected CF1 mouse at 2 mg/day, sc for 4 days assessed after 2 days of last treatment; format: functional, organism-based
Clostridioides difficile [19] = experiment: Effect on growth of epidemic Clostridium difficile BI9 in CF1 mouse assessed as increase in bacterial density in cecal content at 1.4 mg/day, sc for 4 days assessed after 2 days of last treatment; format: functional, organism-based
Clostridioides difficile [20] = experiment: Increase in toxin level in nonepidemic Clostridium difficile ATCC 9689 infected in CF1 mouse at 0.2 mg/day, sc for 4 days assessed after 2 days of last treatment; format: functional, organism-based
Clostridioides difficile [21] = experiment: Effect on growth of epidemic Clostridium difficile BI6-8-17 in CF1 mouse assessed as increase in bacterial density in cecal content at 1.4 mg/day, sc for 4 days assessed after 2 days of last treatment; format: functional, organism-based
Clostridioides difficile [22] = experiment: Antimicrobial activity against epidemic Clostridium difficile BI9 by broth dilution method; format: functional
Clostridioides difficile [23] = experiment: Increase in toxin level in nonepidemic Clostridium difficile ATCC 9689 infected in CF1 mouse at 1.4 mg/day, sc for 4 days assessed after 2 days of last treatment; format: functional, organism-based
Clostridioides difficile [24] = experiment: Effect on growth of nonepidemic Clostridium difficile ATCC 9689 in CF1 mouse assessed as increase in bacterial density in cecal content at 1.4 mg/day, sc for 4 days assessed after 2 days of last treatment; format: functional, organism-based
Clostridioides difficile [25] = experiment: Increase in toxin level in epidemic Clostridium difficile BI9 infected CF1 mouse at 0.2 mg/day, sc for 4 days assessed after 2 days of last treatment; format: functional, organism-based
Clostridioides difficile [26] = experiment: Increase in toxin level in epidemic Clostridium difficile BI6-8-17 infected CF1 mouse at 0.2 mg/day, sc for 4 days assessed after 2 days of last treatment; format: functional, organism-based
Clostridioides difficile [27] = experiment: Increase in toxin level in epidemic Clostridium difficile BI9 infected CF1 mouse at 1.4 mg/day, sc for 4 days assessed after 2 days of last treatment; format: functional, organism-based
Clostridioides difficile [28] = experiment: Inhibition of clindamycin-susceptible nonepidemic Clostridium difficile strain6 in CF1 mouse at 0.2 mg/day, sc for 5 days assessed after 2 days of last treatment; format: functional, organism-based
Clostridioides difficile [29] = experiment: Inhibition of clindamycin-susceptible epidemic Clostridium difficile NAP1 in CF1 mouse at 0.2 mg/day, sc for 5 days; format: functional, organism-based
Clostridioides difficile [30] = experiment: Inhibition of clindamycin-susceptible epidemic Clostridium difficile NAP1 in CF1 mouse at 0.2 mg/day, sc for 5 days assessed after 2 days of last treatment; format: functional, organism-based
Clostridioides difficile [31] = experiment: Inhibition of clindamycin-susceptible nonepidemic Clostridium difficile strain6 in CF1 mouse at 0.2 mg/day, sc for 5 days; format: functional, organism-based
Clostridioides difficile [32] = experiment: Effect on growth of epidemic Clostridium difficile BI9 in CF1 mouse assessed as increase in bacterial density in cecal content at 0.4 mg/day, sc for 4 days assessed after 2 days of last treatment; format: functional, organism-based
[33] = Drug level in Clostridium difficile infected CF1 mouse stool at 0.2 mg/day for 4 days; format: ADME; conditions: read-out: Drug uptake
[34] = Drug level in Clostridium difficile infected CF1 mouse stool at 0.375 mg/day for 4 days; format: ADME; conditions: read-out: Drug uptake

Compound	MIC (Clostridioides difficile [1])	Activity (Clostridioides difficile [2])	MIC (Clostridioides difficile [3])	Activity (Clostridioides difficile [4])	Activity (Clostridioides difficile [5])	MIC (Clostridioides difficile [6])	Activity (Clostridioides difficile [7])	Activity (Clostridioides difficile [9])	Activity (Clostridioides difficile [10])	Activity (Clostridioides difficile [11])	Activity (Clostridioides difficile [13])	Activity (Clostridioides difficile [15])	MIC (Clostridioides difficile [16])	MIC (Clostridioides difficile [17])	Activity (Clostridioides difficile [20])	MIC (Clostridioides difficile [22])	Activity (Clostridioides difficile [23])	Activity (Clostridioides difficile [25])	Activity (Clostridioides difficile [26])	Activity (Clostridioides difficile [27])	other results
CO/N=C(\C(=O)N[C@@H]1C(=O)N2C(C(=O)O)=C(CSc3nc(=O)c(O)nn3C)CS[C@H]12)c1csc(N)n1 [CEFTRIAXONE]	64 µg/mL (≈ 115 µM)	Active	32 µg/mL (≈ 57.7 µM)	Active	Active	32 µg/mL (≈ 57.7 µM)	Active	Active	Active	Active	Active	Active	16 µg/mL (≈ 28.9 µM)	32 µg/mL (≈ 57.7 µM)	Active	32 µg/mL (≈ 57.7 µM)	Active	Active	Active	Active	Activity (Clostridioides difficile [8]): Active; Activity (Clostridioides difficile [12]): Active; Activity (Clostridioides difficile [14]): Active; Activity (Clostridioides difficile [18]): Active; Activity (Clostridioides difficile [19]): Active; Activity (Clostridioides difficile [21]): Active; Activity (Clostridioides difficile [24]): Active
CCC[C@@H]1C[C@@H](C(=O)N[C@@H]([C@H]2O[C@H](SC)[C@H](O)[C@@H](O)[C@H]2O)[C@H](C)Cl)N(C)C1 [CLINDAMYCIN]	> 256 µg/mL	Active	> 256 µg/mL	Active	Active	> 256 µg/mL	Active	Active	Active	Active	Active	Active	2 µg/mL (≈ 4.71 µM)	2 µg/mL (≈ 4.71 µM)	Active	> 256 µg/mL	Active	Active	Active	Active	Activity (Clostridioides difficile [28]): inactive; Activity (Clostridioides difficile [29]): Active; Activity (Clostridioides difficile [12]): Active; Activity (Clostridioides difficile [14]): Active; Activity (Clostridioides difficile [30]): inactive; Activity (Clostridioides difficile [19]): Active; Activity (Clostridioides difficile [31]): Active; Activity (Clostridioides difficile [21]): Active; Activity (Clostridioides difficile [24]): Active
COc1c(N2CCNC(C)C2)c(F)cc2c(=O)c(C(=O)O)cn(C3CC3)c12 (stereo not drawn) [GATIFLOXACIN]	32 µg/mL (≈ 85.2 µM)	–	32 µg/mL (≈ 85.2 µM)	Active	–	< 2 µg/mL	Active	Active	Active	–	Active	Active	256 µg/mL (≈ 682 µM)	4 µg/mL (≈ 10.7 µM)	Active	64 µg/mL (≈ 170 µM)	Active	Active	Active	Active	Activity (Clostridioides difficile [32]): Active; concentration at 96 h [33]: 76600 ng/g; Activity (Clostridioides difficile [18]): Active
C[C@H]1COc2c(N3CCN(C)CC3)c(F)cc3c(=O)c(C(=O)O)cn1c23.C[C@H]1COc2c(N3CCN(C)CC3)c(F)cc3c(=O)c(C(=O)O)cn1c23.O [LEVOFLOXACIN]	256 µg/mL	–	> 256 µg/mL	–	–	8 µg/mL	–	–	–	–	–	–	> 256 µg/mL	8 µg/mL	–	256 µg/mL	–	–	–	–	concentration at 96 h [34]: 58100 ng/g

Reference: ChEMBL document CHEMBL1155776, “Effect of fluoroquinolone treatment on growth of and toxin production by epidemic and nonepidemic clostridium difficile strains in the cecal contents of mice” (Antimicrob Agents Chemother, 2007)
